Legend:
Type in all cases: cell-based
[1] = target: T1, CFTR ΔF508 mutant (Homo sapiens, UniProt P13569, DEL508-508); assay: YFP-halide influx assay for the CFTR-ΔF508 mutation (CFBE41o- cells); settings: forskolin 10.67 μM; for EC50: from (1−F/F0) vs concentration plot
T1 construct: expressed in transfected cells; host or cells: CFBE41o- cells, adenoviral transduction
Procedure, shortened: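 CFBE41o- cells transduced with adenovirus expressing CFTR ΔF508 and halide-sensitive YFP H148Q/I152L/F47L, then held 24 h at 27° C or with a CFTR modulator 24 h at 37° C. Iodide-induced quench recorded 2 min; EC50 from (1−F/F0) at 36 s versus concentration.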

[2] = target: G551D CFTR (Homo sapiens, UniProt P13569, G551D); assay: TECC assay, FRT-CFTR G551D protocol; settings: FRT cells stably transfected with G551D CFTR, high expression cells, increase in Isc after forskolin
Sequence of G551D CFTR (P13569 whole entry G551D): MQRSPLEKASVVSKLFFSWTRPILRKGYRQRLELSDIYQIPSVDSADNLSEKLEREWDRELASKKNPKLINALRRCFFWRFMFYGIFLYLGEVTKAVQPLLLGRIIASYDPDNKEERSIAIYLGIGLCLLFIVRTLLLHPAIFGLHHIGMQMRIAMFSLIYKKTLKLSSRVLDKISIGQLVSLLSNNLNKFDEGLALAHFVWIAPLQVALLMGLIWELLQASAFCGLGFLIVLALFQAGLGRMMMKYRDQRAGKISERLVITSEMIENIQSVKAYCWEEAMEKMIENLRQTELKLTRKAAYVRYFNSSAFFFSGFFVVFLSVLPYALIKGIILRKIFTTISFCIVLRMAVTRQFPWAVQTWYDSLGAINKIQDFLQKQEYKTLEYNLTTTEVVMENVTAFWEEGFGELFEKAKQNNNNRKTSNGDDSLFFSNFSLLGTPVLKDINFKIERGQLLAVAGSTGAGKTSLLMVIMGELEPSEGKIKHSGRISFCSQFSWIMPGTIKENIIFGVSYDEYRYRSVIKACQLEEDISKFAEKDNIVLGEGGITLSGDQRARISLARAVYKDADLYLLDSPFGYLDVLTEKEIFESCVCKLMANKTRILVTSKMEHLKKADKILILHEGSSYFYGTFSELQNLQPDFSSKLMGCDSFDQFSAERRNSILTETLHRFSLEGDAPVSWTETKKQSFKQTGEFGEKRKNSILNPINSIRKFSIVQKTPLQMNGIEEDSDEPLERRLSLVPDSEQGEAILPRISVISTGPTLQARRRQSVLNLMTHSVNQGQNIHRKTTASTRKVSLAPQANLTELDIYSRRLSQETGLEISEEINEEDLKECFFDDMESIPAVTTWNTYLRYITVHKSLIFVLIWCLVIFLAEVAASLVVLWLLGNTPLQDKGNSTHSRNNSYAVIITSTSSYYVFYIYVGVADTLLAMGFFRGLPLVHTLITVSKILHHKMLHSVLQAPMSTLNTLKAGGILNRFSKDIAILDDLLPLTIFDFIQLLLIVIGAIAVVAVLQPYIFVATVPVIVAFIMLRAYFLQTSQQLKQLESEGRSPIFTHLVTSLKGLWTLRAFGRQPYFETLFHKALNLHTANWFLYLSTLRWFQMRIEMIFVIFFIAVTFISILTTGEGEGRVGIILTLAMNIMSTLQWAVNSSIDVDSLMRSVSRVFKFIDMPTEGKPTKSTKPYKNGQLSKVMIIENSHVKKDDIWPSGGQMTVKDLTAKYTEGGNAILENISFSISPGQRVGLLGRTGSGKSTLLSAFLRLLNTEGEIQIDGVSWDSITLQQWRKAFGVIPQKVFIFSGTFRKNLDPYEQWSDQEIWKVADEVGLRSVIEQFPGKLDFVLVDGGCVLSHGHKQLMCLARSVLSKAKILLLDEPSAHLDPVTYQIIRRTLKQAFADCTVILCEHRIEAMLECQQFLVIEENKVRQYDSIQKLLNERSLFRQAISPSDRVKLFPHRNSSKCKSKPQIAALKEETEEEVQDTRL
Description: For G551D recordings, Fischer Rat Thyroid (FRT) cells stably transfected with G551D CFTR (a low CFTR-G551D expressing cell line and a high expressing CFTR-G551D cell line from Rosalind Franklin University of Medicine and Science, North Chicago, Ill.) are plated on Transwell® supports (Costar 6.5 mm diameter, 0.4 μm pore size). The cells are grown for 8-10 days under liquid-liquid interface conditions prior to electrophysiological readings. For electrophysiological recording, the FRT-G551D cells are mounted in the TECC heating plate for electrophysiological measurement and kept at 37° C. The epithelia are bathed in HEPES buffered culturing medium without FBS on both the basolateral and apical sides. Apical amiloride is used to inhibit the endogenous ENaC currents while forkolin is applied on both apical and basolateral side to stimulate CFTR. After forskolin triggering, compounds are added on both sides to test their potential for increasing CFTR gating. Measurements are done during a 10 minute timeframe with recordings every 2 minutes. The increase in Isc is used as a measure for the increased CFTR activity, EC50 values can be generated by measuring impact of different concentrations of compound on Isc on the cells, for this purpose each transwell is treated with a different compound concentration. Inh-172, an inhibitor specific for CFTR, is used to test the specificity of the tested compounds.

[3] = target: T2, CFTR G551D mutant (Homo sapiens, UniProt P13569, G551D); assay: YFP-halide influx assay for the CFTR-G551D mutation (HEK293 cells); settings: forskolin 10.67 μM
T2 construct: expressed in transfected cells; host or cells: HEK293 cells, reverse transfection with plasmids
T2 sequence (P13569 whole entry G551D): as above
Procedure, shortened: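 HEK293 cells reverse-transfected with CFTR G551D and halide-sensitive YFP (H148Q/I152L/F47L), expressed 24 h at 37 °C. YFP fluorescence quenching recorded for 7 s after I⁻ injection. Response = 1−F/F0; EC50 derived from 1−F/F0 vs compound concentration.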

[4] = target: T3, CFTR-S549N (Homo sapiens, UniProt P13569, S549N); assay: YFP-halide influx assay for the CFTR-S549N; parameters: % Activation: concentration or dose not given beside the values
T3 construct: expressed in transfected cells
T3 sequence (P13569 whole entry S549N): as the sequence (P13569 whole entry G551D) above, with S549N, D551G counted along it
Excerpt: (§1) The YFP halide influx assay measured the functionality of the cystic fibrosis Transmembrane Conductance regulator (CFTR) channels. The assay was used to evaluate the capacity of compounds to increase the channel opening of existing mutant CFTR channels in the membrane. It makes use of the observation that the yellow fluorescent protein (YFP) variant YFP H148Q, I152L, F47L has its fluorescence substantially quenched by halide ions like Cl^− and I^− (Galietta, L. J. V., Haggie, P. M., Verkman, A. S., 2001. Green fluorescent protein-based halide indicators with improved chloride and iodide affinities. FEBS Lett. 499, 220-224. doi:10.1016/S0014-5793(01)02561-3).
(§2) For this purpose, HEK293-cells were seeded in 96 well plates. During seeding, the cells were reverse-transfected with plasmid vectors that direct the expression of the CFTR G551D mutant and of the YFP reporter. Cells were incubated at 37° C., 5% CO2 for 24 hours so as to allow for sufficient expression of the CFTR protein.
(§3) The I^−-induced quenching of fluorescence was recorded immediately after injection of I^− for 7 seconds. The capacity of a compound to increase the channel opening was directly correlated with the decrease in fluorescence, and was expressed as (1−(fluorescence after 7 seconds (F)/fluorescence before injection (F0))) and an EC50 was derived from a (1−F/F0) vs compound concentration plot.
(§4) Similar YHA assays were developed for other channel gating defective or channel conductance defective CFTR mutants to determine effect of compound on channel activity. Examples of mutants are G178R, G1349D, S549N, R117H, R334W. This assay is also used for additional class I CFTR mutants, including G542X, W1282X; class II mutants including N1303K, and for class III mutants including S1251N; or wild-type CFTR.

[5] = target: T4, CFTR-G178R (Homo sapiens, UniProt P13569, G178R); assay: YFP-halide influx assay for the CFTR-G178R
T4 construct: expressed in transfected cells
T4 sequence (P13569 whole entry G178R): as the sequence (P13569 whole entry G551D) above, with G178R, D551G counted along it
Excerpt: as §1, §2, §3, §4

[6] = target: T5, CFTR-G1349D (Homo sapiens, UniProt P13569, G1349D); assay: YFP-halide influx assay for the CFTR-G1349D
T5 construct: expressed in transfected cells
T5 sequence (P13569 whole entry G1349D): as the sequence (P13569 whole entry G551D) above, with D551G, G1349D counted along it
Excerpt: as §1, §2, §3, §4

[7] = target: T6, CFTR-R117H (Homo sapiens, UniProt P13569, R117H); assay: YFP-halide influx assay for the CFTR-R117H
T6 construct: expressed in transfected cells
T6 sequence (P13569 whole entry R117H): as the sequence (P13569 whole entry G551D) above, with R117H, D551G counted along it
Excerpt: as §1, §2, §3, §4

T1 sequence (P13569 with tags, fused parts or gaps DEL508-508): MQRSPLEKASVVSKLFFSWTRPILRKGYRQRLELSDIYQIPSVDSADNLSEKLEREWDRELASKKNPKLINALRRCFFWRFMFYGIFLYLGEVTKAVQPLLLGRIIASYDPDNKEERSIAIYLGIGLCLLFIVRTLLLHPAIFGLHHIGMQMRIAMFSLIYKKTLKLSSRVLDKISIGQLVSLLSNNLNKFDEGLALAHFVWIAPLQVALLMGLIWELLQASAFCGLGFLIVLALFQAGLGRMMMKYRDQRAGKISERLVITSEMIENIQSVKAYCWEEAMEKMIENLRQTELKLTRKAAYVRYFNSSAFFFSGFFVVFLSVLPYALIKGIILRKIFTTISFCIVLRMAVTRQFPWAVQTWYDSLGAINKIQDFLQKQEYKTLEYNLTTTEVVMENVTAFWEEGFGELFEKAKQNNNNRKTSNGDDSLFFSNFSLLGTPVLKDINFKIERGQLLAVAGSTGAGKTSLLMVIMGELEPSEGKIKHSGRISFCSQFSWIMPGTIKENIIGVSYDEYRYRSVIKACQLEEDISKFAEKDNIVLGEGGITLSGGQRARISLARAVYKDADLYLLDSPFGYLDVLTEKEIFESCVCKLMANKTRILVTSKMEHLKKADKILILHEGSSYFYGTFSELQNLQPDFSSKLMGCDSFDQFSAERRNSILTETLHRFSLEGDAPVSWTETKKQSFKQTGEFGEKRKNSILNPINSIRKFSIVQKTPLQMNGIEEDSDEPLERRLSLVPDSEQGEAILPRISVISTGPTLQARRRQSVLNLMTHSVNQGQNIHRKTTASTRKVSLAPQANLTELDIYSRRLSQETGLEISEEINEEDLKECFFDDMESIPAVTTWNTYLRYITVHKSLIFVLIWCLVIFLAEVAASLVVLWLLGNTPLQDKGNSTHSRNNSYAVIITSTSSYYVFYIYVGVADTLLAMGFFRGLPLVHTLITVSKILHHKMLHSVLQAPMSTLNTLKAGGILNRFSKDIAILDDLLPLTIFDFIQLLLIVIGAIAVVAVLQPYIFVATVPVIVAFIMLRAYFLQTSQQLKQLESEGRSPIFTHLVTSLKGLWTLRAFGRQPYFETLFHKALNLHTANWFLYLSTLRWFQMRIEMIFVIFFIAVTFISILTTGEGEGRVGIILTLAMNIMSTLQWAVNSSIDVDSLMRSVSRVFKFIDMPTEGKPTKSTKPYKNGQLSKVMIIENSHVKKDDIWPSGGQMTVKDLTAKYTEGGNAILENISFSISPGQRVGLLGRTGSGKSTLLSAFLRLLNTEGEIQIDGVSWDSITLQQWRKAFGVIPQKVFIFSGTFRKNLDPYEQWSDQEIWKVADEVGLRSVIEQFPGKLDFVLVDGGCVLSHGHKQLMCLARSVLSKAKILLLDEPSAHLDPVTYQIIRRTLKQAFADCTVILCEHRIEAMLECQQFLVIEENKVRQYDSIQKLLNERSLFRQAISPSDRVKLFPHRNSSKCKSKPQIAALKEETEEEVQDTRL

Structure (SMILES) | % Activation [1] [%] | EC50 [1] [nM] | EC50 [2] [nM] | % Activation [3] [%] | EC50 [3] [nM] | % Activation [4] [%] | EC50 [4] [nM] | % Activation [5] [%] | EC50 [5] [nM] | % Activation [6] [%] | EC50 [6] [nM] | % Activation [7] [%] | EC50 [7] [nM]
Nc1cc(S(=O)(=O)c2ccc(OC(F)(F)F)cc2)cnc1C(=O)N[C@@H]1CCCC[C@H]1O (racemic) [Compound 17, rac-3-amino-N-[(1R,2R)-2-hydroxycyclohexyl]-5-{[4-(trifluoromethoxy)phenyl]sulfonyl}pyridine-2-carboxamide] | 113.0 | 8.8 | 1130 | 82.7 | 1640 |  |  |  |  |  |  |  | 
CC(C)(O)CNC(=O)c1ncc(S(=O)(=O)c2ccc(C(F)(F)F)cc2)cc1N [Compound 11, 3-amino-N-(2-hydroxy-2-methylpropyl)-5-{[4-(trifluoromethyl)phenyl]sulfonyl}pyridine-2-carboxamide] | 113.5 | 21.7 | 1350 | 75.7 | 835 | 84.1 | 945 | 95.3 | 442 | 90.4 | 1600 | 90.4 | 296
COCC(O)CNC(=O)c1ncc(S(=O)(=O)c2ccc(OC(F)(F)F)cc2)cc1N (stereo not shown) [Compound 3, 3-amino-N-(2-hydroxy-3-methoxypropyl)-5-{[4-(trifluoromethoxy)phenyl]sulfonyl}pyridine-2-carboxamide] | 109.7 | 17.7 | 1980 | 73.9 | 1980 | 91.8 | 839 | 98.2 | 392 | 83.2 | 291 | 102.0 | 451
Nc1cc(S(=O)(=O)c2ccc(OC(F)(F)F)cc2)cnc1C(=O)NCC1(O)CC1 [Compound 15, 3-amino-N-[(1-hydroxycyclopropyl)methyl]-5-{[4-(trifluoromethoxy)phenyl]sulfonyl}pyridine-2-carboxamide] | 109.0 | 2.6 | 669 | 69.3 | 361 |  |  |  |  |  |  |  | 

Now from value to molecule:

% Activation [1] [%] | EC50 [1] [nM] | EC50 [2] [nM] | % Activation [3] [%] | EC50 [3] [nM] | % Activation [4] [%] | EC50 [4] [nM] | % Activation [5] [%] | EC50 [5] [nM] | % Activation [6] [%] | EC50 [6] [nM] | % Activation [7] [%] | EC50 [7] [nM] | Structure (SMILES)
106.6 | 21.4 | 2830 | 52.2 | 423 |  |  |  |  |  |  |  |  | CC(CO)CNC(=O)c1ncc(S(=O)(=O)c2ccc(OC(F)(F)F)cc2)cc1N (stereo not shown) [Compound 24, 3-amino-N-(3-hydroxy-2-methylpropyl)-5-{[4-(trifluoromethoxy)phenyl]sulfonyl}pyridine-2-carboxamide]
113.3 | 16.4 | 5480 | 63.2 | 1080 | 79.6 | 1610 | 89.9 | 561 | 84.3 | 659 | 90.8 | 186 | CC(O)(CNC(=O)c1ncc(S(=O)(=O)c2ccc(F)cc2)cc1N)C(F)(F)F (stereo not shown) [Compound 19, 3-amino-5-[(4-fluorophenyl)sulfonyl]-N-(3,3,3-trifluoro-2-hydroxy-2-methylpropyl)pyridine-2-carboxamide]
109.1 | 43.1 | 1430 | 79.2 | > 3330 |  |  |  |  |  |  |  |  | CC(C)(CO)CNC(=O)c1ncc(S(=O)(=O)c2ccc(OC(F)(F)F)cc2)cc1N [Compound 18, 3-amino-N-(3-hydroxy-2,2-dimethylpropyl)-5-{[4-(trifluoromethoxy)phenyl]sulfonyl}pyridine-2-carboxamide]
115.2 | 10.9 | 116 | 55.0 | 287 |  |  |  |  | 87.6 | 214 | 94.2 | 92.8 | CC(C)(O)C1CN(C(=O)c2ncc(S(=O)(=O)c3ccc(C(F)(F)F)cc3)cc2N)C1 [Compound 165, (3-amino-5-{[4-(trifluoromethyl)phenyl]sulfonyl}pyridin-2-yl)[3-(2-hydroxypropan-2-yl)azetidin-1-yl]methanone]
98.5 | 29.7 | 3700 | 64.8 | 893 |  |  |  |  |  |  |  |  | C[C@@H](O)CNC(=O)c1ncc(S(=O)(=O)c2ccc(OC(F)(F)F)cc2)cc1N [Compound 20, 3-amino-N-[(2R)-2-hydroxypropyl]-5-{[4-(trifluoromethoxy)phenyl]sulfonyl}pyridine-2-carboxamide]

From patent US10047051B2, “Substituted pyridines and method of use” (AbbVie S.á{acute over (.)}r.l., priority 2015, dated 2018)
